# PMC3968014, “Design and Synthesis of a Library of Lead-Like 2,4-Bisheterocyclic Substituted Thiophenes as Selective Dyrk/Clk Inhibitors” (PLoS ONE, 2014)
# “And” between values parts separate entries of the source, which are not always exact repeats. Equal values may be shown once.
# Key:
# Dyrk1B = molecular target: T1, Dyrk1B (Homo sapiens, UniProt Q9Y463); experiment: Dyrk1B kinase assay (32P-ATP, Woodtide); assay type: biochemical; conditions: for IC50: 100 µM ATP; for inhibition at 5 µM: read-out: percentage of inhibition Dyrk1B; for Kd: calculated with Cheng-Prussoff equation, KM ATP 59 µM
# T1 construct: purchased Life Technologies PV4649 (LOT # 877059G)
# T1 sequence (Q9Y463 whole entry): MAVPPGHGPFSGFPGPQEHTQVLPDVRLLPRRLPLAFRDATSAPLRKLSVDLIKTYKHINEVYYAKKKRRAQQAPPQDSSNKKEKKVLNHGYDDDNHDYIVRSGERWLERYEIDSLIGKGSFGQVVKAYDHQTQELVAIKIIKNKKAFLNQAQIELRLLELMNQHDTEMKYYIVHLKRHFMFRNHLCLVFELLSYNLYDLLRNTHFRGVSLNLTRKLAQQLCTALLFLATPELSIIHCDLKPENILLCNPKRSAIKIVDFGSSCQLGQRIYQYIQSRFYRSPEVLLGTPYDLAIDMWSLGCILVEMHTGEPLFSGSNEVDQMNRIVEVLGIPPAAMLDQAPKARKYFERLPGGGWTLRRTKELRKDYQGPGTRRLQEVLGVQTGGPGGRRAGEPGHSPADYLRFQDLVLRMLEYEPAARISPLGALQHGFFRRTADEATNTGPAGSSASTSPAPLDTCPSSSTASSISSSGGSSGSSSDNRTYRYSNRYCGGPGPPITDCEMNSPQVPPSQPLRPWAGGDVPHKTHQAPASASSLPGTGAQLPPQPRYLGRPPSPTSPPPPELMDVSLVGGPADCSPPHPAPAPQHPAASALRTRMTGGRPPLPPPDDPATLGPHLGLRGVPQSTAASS
# DYRK4 = molecular target: T2, DYRK4 (Homo sapiens, UniProt Q9NR20); experiment: Selectivity panel DYRK4; assay type: biochemical; conditions: 5 µM inhibitor
# T2 construct: purchased Life Technologies (Invitrogen SelectScreen); Dyrk1A, Dyrk2 and CK2α in-house or gifts
# CLK2 = molecular target: T3, CLK2 (Homo sapiens, UniProt P49760); experiment: Selectivity panel CLK2; assay type: biochemical; conditions: 5 µM inhibitor
# T3 construct: purchased Life Technologies (Invitrogen SelectScreen); Dyrk1A, Dyrk2 and CK2α in-house or gifts
# T3 sequence (P49760 whole entry): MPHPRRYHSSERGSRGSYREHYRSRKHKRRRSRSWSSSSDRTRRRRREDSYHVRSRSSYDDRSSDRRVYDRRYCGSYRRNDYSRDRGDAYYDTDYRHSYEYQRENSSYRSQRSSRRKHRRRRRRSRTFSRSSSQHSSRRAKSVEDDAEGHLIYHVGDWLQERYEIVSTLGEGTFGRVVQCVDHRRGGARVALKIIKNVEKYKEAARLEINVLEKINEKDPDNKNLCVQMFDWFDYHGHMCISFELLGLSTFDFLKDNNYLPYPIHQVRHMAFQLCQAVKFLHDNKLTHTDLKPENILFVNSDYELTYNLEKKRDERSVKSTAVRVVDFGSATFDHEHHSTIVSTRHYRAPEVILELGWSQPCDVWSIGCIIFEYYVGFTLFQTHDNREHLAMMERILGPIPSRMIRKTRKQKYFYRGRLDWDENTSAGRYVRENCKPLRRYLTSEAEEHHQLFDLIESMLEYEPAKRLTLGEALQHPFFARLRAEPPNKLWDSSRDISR
# Clk3 = molecular target: T4, Clk3 (Homo sapiens, UniProt P49761); experiment: Selectivity panel Clk3; assay type: biochemical; conditions: 5 µM inhibitor
# T4 construct: purchased Life Technologies (Invitrogen SelectScreen); Dyrk1A, Dyrk2 and CK2α in-house or gifts
# T4 sequence (P49761 whole entry): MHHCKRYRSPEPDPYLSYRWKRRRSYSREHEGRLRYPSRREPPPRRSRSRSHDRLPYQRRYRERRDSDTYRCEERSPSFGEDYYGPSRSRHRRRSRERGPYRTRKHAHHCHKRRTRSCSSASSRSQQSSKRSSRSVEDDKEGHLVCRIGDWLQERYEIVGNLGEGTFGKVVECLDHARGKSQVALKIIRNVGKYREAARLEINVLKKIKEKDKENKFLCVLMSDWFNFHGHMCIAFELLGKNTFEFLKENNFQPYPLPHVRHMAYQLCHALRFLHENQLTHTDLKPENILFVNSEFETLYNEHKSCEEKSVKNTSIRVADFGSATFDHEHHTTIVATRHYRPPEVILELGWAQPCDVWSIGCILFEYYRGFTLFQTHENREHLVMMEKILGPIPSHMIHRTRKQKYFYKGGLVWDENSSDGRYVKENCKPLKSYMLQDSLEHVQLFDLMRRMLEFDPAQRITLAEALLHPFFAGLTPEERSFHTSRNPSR
# HIPK1 = molecular target: T5, HIPK1 (Homo sapiens, UniProt Q86Z02); experiment: Selectivity panel HIPK1; assay type: biochemical; conditions: 5 µM inhibitor
# T5 construct: purchased Life Technologies (Invitrogen SelectScreen); Dyrk1A, Dyrk2 and CK2α in-house or gifts
# T5 sequence (Q86Z02 whole entry): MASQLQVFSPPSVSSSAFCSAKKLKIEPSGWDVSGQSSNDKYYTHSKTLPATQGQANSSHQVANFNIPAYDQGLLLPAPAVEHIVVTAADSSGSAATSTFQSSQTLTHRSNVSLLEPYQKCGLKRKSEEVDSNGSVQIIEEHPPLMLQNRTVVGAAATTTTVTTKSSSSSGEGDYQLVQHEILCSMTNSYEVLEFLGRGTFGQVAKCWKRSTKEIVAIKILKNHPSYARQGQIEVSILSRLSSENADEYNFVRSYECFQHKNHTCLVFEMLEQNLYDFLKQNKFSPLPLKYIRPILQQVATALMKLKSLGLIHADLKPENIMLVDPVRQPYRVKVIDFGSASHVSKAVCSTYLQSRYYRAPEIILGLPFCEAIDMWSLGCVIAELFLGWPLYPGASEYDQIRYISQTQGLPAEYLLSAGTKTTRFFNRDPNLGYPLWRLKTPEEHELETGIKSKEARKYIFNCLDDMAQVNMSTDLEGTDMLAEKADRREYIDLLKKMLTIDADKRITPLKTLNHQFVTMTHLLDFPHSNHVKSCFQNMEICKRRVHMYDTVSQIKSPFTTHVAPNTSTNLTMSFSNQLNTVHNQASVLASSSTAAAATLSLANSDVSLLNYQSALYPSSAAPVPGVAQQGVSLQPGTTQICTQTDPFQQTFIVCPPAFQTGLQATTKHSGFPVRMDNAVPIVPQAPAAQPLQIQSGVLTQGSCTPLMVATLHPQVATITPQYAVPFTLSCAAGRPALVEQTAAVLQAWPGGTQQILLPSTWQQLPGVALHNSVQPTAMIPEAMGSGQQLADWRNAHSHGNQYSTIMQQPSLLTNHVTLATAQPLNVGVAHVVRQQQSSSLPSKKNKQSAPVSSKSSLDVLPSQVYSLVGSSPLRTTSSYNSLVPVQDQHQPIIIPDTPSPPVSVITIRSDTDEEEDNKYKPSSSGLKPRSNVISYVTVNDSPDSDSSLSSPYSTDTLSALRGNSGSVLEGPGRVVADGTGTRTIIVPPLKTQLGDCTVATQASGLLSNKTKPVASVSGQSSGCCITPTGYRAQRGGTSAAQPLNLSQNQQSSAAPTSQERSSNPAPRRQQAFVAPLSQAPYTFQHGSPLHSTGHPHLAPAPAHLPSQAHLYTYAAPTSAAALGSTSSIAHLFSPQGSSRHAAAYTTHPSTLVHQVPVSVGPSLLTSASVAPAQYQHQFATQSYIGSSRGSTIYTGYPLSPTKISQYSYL
# CDK2/cyclin A = molecular target: T6, CDK2/cyclin A (Homo sapiens, UniProt P24941); experiment: Selectivity panel CDK2/cyclin A; assay type: biochemical; conditions: 5 µM inhibitor
# T6 construct: purchased Life Technologies (Invitrogen SelectScreen); Dyrk1A, Dyrk2 and CK2α in-house or gifts
# MAPK8 (JNK1) = molecular target: T7, MAPK8 (JNK1) (Homo sapiens, UniProt P45983); experiment: Selectivity panel MAPK8; assay type: biochemical; conditions: 5 µM inhibitor
# T7 construct: purchased Life Technologies (Invitrogen SelectScreen); Dyrk1A, Dyrk2 and CK2α in-house or gifts
# MAP3K14 (NIK) = molecular target: T8, MAP3K14 (NIK) (Homo sapiens, UniProt Q99558); experiment: Selectivity panel MAP3K14; assay type: biochemical; conditions: 5 µM inhibitor
# T8 construct: purchased Life Technologies (Invitrogen SelectScreen); Dyrk1A, Dyrk2 and CK2α in-house or gifts
# MAP2K6 (MKK6) = molecular target: T9, MAP2K6 (MKK6) (Homo sapiens, UniProt P52564); experiment: Selectivity panel MAP2K6; assay type: biochemical; conditions: 5 µM inhibitor
# T9 construct: purchased Life Technologies (Invitrogen SelectScreen); Dyrk1A, Dyrk2 and CK2α in-house or gifts
# MAP4K2 (GCK) = molecular target: T10, MAP4K2 (GCK) (Homo sapiens, UniProt Q12851); experiment: Selectivity panel MAP4K2; assay type: biochemical; conditions: 5 µM inhibitor
# T10 construct: purchased Life Technologies (Invitrogen SelectScreen); Dyrk1A, Dyrk2 and CK2α in-house or gifts
# MINK1 = molecular target: T11, MINK1 (Homo sapiens, UniProt Q8N4C8); experiment: Selectivity panel MINK1; assay type: biochemical; conditions: 5 µM inhibitor
# T11 construct: purchased Life Technologies (Invitrogen SelectScreen); Dyrk1A, Dyrk2 and CK2α in-house or gifts
# AKT1 (PKB alpha) = molecular target: T12, AKT1 (PKB alpha) (Homo sapiens, UniProt P31749); experiment: Selectivity panel AKT1; assay type: biochemical; conditions: 5 µM inhibitor
# T12 construct: purchased Life Technologies (Invitrogen SelectScreen); Dyrk1A, Dyrk2 and CK2α in-house or gifts
# PRKACA (PKA) = molecular target: T13, PRKACA (PKA) (Homo sapiens, UniProt P17612); experiment: Selectivity panel PRKACA; assay type: biochemical; conditions: 5 µM inhibitor
# T13 construct: purchased Life Technologies (Invitrogen SelectScreen); Dyrk1A, Dyrk2 and CK2α in-house or gifts
# PIM1 = PIM1 (Homo sapiens, UniProt P11309); experiment: Selectivity panel PIM1; assay type: biochemical; conditions: for inhibition at 5 µM: 5 µM inhibitor
# Chain of PIM1 (P11309 whole entry): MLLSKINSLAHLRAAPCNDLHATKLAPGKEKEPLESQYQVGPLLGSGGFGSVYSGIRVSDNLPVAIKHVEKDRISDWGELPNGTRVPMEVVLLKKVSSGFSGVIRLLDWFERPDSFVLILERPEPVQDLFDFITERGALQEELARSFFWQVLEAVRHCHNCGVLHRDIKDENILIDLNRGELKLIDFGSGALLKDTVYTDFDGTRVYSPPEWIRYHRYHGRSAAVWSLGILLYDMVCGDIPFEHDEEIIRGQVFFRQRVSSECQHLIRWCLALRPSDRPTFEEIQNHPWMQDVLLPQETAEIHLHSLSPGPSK
# CaMK1 = molecular target: T14, CaMK1 (Homo sapiens, UniProt Q14012); experiment: Selectivity panel CaMK1; assay type: biochemical; conditions: 5 µM inhibitor
# T14 construct: purchased Life Technologies (Invitrogen SelectScreen); Dyrk1A, Dyrk2 and CK2α in-house or gifts
# T14 sequence (Q14012 whole entry): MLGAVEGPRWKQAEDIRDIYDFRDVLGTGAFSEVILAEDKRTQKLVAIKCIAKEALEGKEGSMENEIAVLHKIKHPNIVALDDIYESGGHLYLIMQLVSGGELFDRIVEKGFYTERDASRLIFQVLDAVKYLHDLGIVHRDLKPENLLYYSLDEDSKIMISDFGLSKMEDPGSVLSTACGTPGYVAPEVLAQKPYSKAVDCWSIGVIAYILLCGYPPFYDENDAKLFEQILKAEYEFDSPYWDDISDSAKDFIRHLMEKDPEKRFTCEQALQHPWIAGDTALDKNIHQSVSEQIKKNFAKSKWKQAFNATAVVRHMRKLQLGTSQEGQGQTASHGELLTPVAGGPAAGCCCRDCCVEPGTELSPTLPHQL
# MARK1 (MARK) = molecular target: T15, MARK1 (MARK) (Homo sapiens, UniProt Q9P0L2); experiment: Selectivity panel MARK1; assay type: biochemical; conditions: 5 µM inhibitor
# T15 construct: purchased Life Technologies (Invitrogen SelectScreen); Dyrk1A, Dyrk2 and CK2α in-house or gifts
# PRKD2 (PKD2) = molecular target: T16, PRKD2 (PKD2) (Homo sapiens, UniProt Q9BZL6); experiment: Selectivity panel PRKD2; assay type: biochemical; conditions: 5 µM inhibitor
# T16 construct: purchased Life Technologies (Invitrogen SelectScreen); Dyrk1A, Dyrk2 and CK2α in-house or gifts
# T16 sequence (Q9BZL6 1-878): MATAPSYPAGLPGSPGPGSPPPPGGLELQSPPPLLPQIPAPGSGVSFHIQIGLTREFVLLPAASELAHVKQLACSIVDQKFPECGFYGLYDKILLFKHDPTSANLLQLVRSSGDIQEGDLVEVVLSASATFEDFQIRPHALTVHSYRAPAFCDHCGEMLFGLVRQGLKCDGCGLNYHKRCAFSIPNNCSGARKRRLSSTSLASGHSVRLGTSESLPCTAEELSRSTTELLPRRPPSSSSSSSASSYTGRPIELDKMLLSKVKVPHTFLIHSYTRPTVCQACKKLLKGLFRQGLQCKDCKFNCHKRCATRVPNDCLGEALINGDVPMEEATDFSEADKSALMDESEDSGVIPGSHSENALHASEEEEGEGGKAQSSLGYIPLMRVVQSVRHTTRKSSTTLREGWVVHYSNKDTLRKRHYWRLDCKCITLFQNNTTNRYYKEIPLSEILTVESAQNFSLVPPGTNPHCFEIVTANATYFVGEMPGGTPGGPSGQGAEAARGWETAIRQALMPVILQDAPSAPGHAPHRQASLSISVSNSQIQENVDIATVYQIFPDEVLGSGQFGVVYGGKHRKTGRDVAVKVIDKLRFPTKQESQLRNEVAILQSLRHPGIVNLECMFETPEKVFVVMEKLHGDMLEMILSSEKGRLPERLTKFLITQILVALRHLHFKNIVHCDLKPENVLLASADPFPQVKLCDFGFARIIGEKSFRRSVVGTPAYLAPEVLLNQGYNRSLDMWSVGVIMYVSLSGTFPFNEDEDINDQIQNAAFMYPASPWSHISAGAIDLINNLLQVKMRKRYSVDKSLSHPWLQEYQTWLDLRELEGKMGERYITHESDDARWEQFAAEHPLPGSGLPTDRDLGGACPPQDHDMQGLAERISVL
# CHEK2 (CHK2) = molecular target: T17, CHEK2 (CHK2) (Homo sapiens, UniProt O96017); experiment: Selectivity panel CHEK2; assay type: biochemical; conditions: 5 µM inhibitor
# T17 construct: purchased Life Technologies (Invitrogen SelectScreen); Dyrk1A, Dyrk2 and CK2α in-house or gifts
# STK22B (TSSK2) = molecular target: T18, STK22B (TSSK2) (Homo sapiens, UniProt Q96PF2); experiment: Selectivity panel STK22B; assay type: biochemical; conditions: 5 µM inhibitor
# T18 construct: purchased Life Technologies (Invitrogen SelectScreen); Dyrk1A, Dyrk2 and CK2α in-house or gifts
# PRKD1 (PKC mu, PKD1) = molecular target: T19, PRKD1 (PKC mu, PKD1) (Homo sapiens, UniProt Q15139); experiment: Selectivity panel PRKD1; assay type: biochemical; conditions: 5 µM inhibitor
# T19 construct: purchased Life Technologies (Invitrogen SelectScreen); Dyrk1A, Dyrk2 and CK2α in-house or gifts
# AURKA (Aurora A) = molecular target: T20, AURKA (Aurora A) (Homo sapiens, UniProt O14965); experiment: Selectivity panel AURKA; assay type: biochemical; conditions: 5 µM inhibitor
# T20 construct: purchased Life Technologies (Invitrogen SelectScreen); Dyrk1A, Dyrk2 and CK2α in-house or gifts
# WEE1 = molecular target: T21, WEE1 (Homo sapiens, UniProt P30291); experiment: Selectivity panel WEE1; assay type: biochemical; conditions: 5 µM inhibitor
# T21 construct: purchased Life Technologies (Invitrogen SelectScreen); Dyrk1A, Dyrk2 and CK2α in-house or gifts
# NEK7 = molecular target: T22, NEK7 (Homo sapiens, UniProt Q8TDX7); experiment: Selectivity panel NEK7; assay type: biochemical; conditions: 5 µM inhibitor
# T22 construct: purchased Life Technologies (Invitrogen SelectScreen); Dyrk1A, Dyrk2 and CK2α in-house or gifts
# TBK1 = molecular target: T23, TBK1 (Homo sapiens, UniProt Q9UHD2); experiment: Selectivity panel TBK1; assay type: biochemical; conditions: 5 µM inhibitor
# T23 construct: purchased Life Technologies (Invitrogen SelectScreen); Dyrk1A, Dyrk2 and CK2α in-house or gifts
# CSNK1G1 (CK1 gamma 1) = molecular target: T24, CSNK1G1 (CK1 gamma 1) (Homo sapiens, UniProt Q9HCP0); experiment: Selectivity panel CSNK1G1; assay type: biochemical; conditions: 5 µM inhibitor
# T24 construct: purchased Life Technologies (Invitrogen SelectScreen); Dyrk1A, Dyrk2 and CK2α in-house or gifts
# T24 sequence (Q9HCP0 whole entry): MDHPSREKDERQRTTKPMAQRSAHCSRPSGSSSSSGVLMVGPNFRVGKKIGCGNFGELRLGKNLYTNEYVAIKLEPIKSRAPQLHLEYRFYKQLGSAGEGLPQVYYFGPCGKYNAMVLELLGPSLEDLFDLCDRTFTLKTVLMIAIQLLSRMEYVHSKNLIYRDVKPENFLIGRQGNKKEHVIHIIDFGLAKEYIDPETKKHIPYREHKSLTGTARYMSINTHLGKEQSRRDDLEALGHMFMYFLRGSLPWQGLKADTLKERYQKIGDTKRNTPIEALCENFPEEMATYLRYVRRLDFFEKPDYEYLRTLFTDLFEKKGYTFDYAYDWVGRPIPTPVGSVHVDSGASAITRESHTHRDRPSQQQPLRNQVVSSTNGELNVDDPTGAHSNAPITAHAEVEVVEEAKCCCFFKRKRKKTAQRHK
# RAF1 (cRAF) Y340D Y341D = molecular target: T25, RAF1 (cRAF) Y340D Y341D (Homo sapiens, UniProt P04049, Y340D/Y341D); experiment: Selectivity panel RAF1; assay type: biochemical; conditions: 5 µM inhibitor
# T25 construct: purchased Life Technologies (Invitrogen SelectScreen); Dyrk1A, Dyrk2 and CK2α in-house or gifts
# JAK2 = molecular target: T26, JAK2 (Homo sapiens, UniProt O60674); experiment: Selectivity panel JAK2; assay type: biochemical; conditions: 5 µM inhibitor
# T26 construct: purchased Life Technologies (Invitrogen SelectScreen); Dyrk1A, Dyrk2 and CK2α in-house or gifts
# RET = molecular target: T27, RET (Homo sapiens, UniProt P07949); experiment: Selectivity panel RET; assay type: biochemical; conditions: 5 µM inhibitor
# T27 construct: purchased Life Technologies (Invitrogen SelectScreen); Dyrk1A, Dyrk2 and CK2α in-house or gifts
# T27 sequence (P07949 29-1114): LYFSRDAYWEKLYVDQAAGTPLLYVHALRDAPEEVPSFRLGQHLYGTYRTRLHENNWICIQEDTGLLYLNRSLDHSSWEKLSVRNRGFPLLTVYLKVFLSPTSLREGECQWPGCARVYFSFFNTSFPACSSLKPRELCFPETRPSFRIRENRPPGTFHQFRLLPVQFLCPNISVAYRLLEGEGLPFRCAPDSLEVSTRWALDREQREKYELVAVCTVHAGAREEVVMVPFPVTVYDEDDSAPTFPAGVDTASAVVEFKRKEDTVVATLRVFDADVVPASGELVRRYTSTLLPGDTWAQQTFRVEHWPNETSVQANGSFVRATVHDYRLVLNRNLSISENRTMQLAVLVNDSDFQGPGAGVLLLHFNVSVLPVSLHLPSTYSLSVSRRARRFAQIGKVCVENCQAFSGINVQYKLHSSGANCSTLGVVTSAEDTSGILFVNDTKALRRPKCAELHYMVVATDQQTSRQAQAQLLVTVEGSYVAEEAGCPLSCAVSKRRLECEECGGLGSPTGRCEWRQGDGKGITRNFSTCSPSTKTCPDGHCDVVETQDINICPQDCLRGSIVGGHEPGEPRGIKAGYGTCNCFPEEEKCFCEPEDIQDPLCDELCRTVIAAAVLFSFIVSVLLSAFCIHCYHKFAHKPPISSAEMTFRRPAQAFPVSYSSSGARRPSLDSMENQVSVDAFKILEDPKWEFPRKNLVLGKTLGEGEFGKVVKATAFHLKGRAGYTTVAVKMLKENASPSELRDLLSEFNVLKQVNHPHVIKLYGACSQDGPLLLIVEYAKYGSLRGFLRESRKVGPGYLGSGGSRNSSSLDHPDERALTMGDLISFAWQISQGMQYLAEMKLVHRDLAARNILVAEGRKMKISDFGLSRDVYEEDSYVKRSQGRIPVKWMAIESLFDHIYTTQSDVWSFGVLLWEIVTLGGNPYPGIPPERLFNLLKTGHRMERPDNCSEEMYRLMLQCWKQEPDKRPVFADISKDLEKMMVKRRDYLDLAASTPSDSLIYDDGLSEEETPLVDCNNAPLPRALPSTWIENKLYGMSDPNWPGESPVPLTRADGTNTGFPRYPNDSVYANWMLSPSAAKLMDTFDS
# EPHA5 = molecular target: T28, EPHA5 (Homo sapiens, UniProt P54756); experiment: Selectivity panel EPHA5; assay type: biochemical; conditions: 5 µM inhibitor
# T28 construct: purchased Life Technologies (Invitrogen SelectScreen); Dyrk1A, Dyrk2 and CK2α in-house or gifts
# [1] = Metabolic Stability Assay; conditions: male, Sprague-Dawley, rat, liver microsomes
Structure (SMILES),IC50 (Dyrk1B),inhibition at 5 µM (Dyrk1B),Kd (Dyrk1B),inhibition at 5 µM (DYRK4),inhibition at 5 µM (CLK2),inhibition at 5 µM (Clk3),inhibition at 5 µM (HIPK1),inhibition at 5 µM (CDK2/cyclin A),inhibition at 5 µM (MAPK8 (JNK1)),inhibition at 5 µM (MAP3K14 (NIK)),inhibition at 5 µM (MAP2K6 (MKK6)),inhibition at 5 µM (MAP4K2 (GCK)),inhibition at 5 µM (MINK1),inhibition at 5 µM (AKT1 (PKB alpha)),IC50 (PIM1),inhibition at 5 µM (PIM1),inhibition at 5 µM (CaMK1),inhibition at 5 µM (PRKD2 (PKD2)),CLhep predicted at 0.5 µM [1],half-life at 0.5 µM [1],other results
"c1cncc(-c2csc(-c3cncs3)c2)c1 [Compound 48, 3-[5-(1,3-thiazol-5-yl)thiophen-3-yl]pyridine]",70 nM,100%,26 nM,12%,78%,31%,9%,33%,5%,5%,7%,6%,19%,3%,~5000 nM,51%,5%,0%,47 mL/min/kg,31 min,"inhibition at 5 µM (PRKACA (PKA)): 3%; inhibition at 5 µM (MARK1 (MARK)): 1%; inhibition at 5 µM (CHEK2 (CHK2)): -2%; inhibition at 5 µM (STK22B (TSSK2)): -2%; inhibition at 5 µM (PRKD1 (PKC mu, PKD1)): -5%; inhibition at 5 µM (AURKA (Aurora A)): 2%; inhibition at 5 µM (WEE1): 10%; inhibition at 5 µM (NEK7): -7%; inhibition at 5 µM (TBK1): 8%; inhibition at 5 µM (CSNK1G1 (CK1 gamma 1)): -3%; inhibition at 5 µM (RAF1 (cRAF) Y340D Y341D): 37%; inhibition at 5 µM (JAK2): -4%; inhibition at 5 µM (RET): 1%; inhibition at 5 µM (EPHA5): -6%"
"c1cncc(-c2csc(-c3cnco3)c2)c1 [Compound 33, 3-[5-(1,3-oxazol-5-yl)thiophen-3-yl]pyridine]",1000 nM,83%,,,,5%,7%,,,,,,,,~5000 nM,51%,12%,0%,,,
"c1cncc(-c2cc(-c3cncs3)cs2)c1 [Compound 29, 3-[4-(1,3-thiazol-5-yl)thiophen-2-yl]pyridine]",,,,13%,72%,12%,4%,22%,-1%,2%,5%,32%,36%,9%,,22%,8%,0%,49 mL/min/kg,27 min,"inhibition at 5 µM (PRKACA (PKA)): 1%; inhibition at 5 µM (MARK1 (MARK)): 0%; inhibition at 5 µM (CHEK2 (CHK2)): 1%; inhibition at 5 µM (STK22B (TSSK2)): -2%; inhibition at 5 µM (PRKD1 (PKC mu, PKD1)): -1%; inhibition at 5 µM (AURKA (Aurora A)): 5%; inhibition at 5 µM (WEE1): 17%; inhibition at 5 µM (NEK7): 0%; inhibition at 5 µM (TBK1): 3%; inhibition at 5 µM (CSNK1G1 (CK1 gamma 1)): -5%; inhibition at 5 µM (RAF1 (cRAF) Y340D Y341D): 36%; inhibition at 5 µM (JAK2): -2%; inhibition at 5 µM (RET): -1%; inhibition at 5 µM (EPHA5): -9%"
"Cn1cc(-c2csc(-c3cccnc3)c2)cn1 [Compound 30, 3-[4-(1-methyl-1H-pyrazol-4-yl)thiophen-2-yl]pyridine]",400 nM and 410 nM,100%,148 nM,,,17%,8%,,,,,,,,~5000 nM,52%,17%,-8%,34 mL/min/kg,53 min,
"c1cncc(-c2csc(-c3cncnc3)c2)c1 [Compound 41, 5-[4-(pyridin-3-yl)thiophen-2-yl]pyrimidine]",1800 nM,70%,,,,5%,9%,,,,,,,,,14%,0%,0%,,,
